The values below come from patent EP4178959B1, “NITROGEN HETEROCYCLIC CYTOKININ DERIVATIVES, COMPOSITIONS CONTAINING THESE DERIVATIVES AND USE THEREOF” (Univerzita Palackého v Olomouci, priority 2020, dated 2022).

The structures appear in SMILES notation.

One series has as its system Arabidopsis thaliana. The series can be described thus: Effect on the root proliferation of Arabidopsis thaliana. It is filed as in vivo, Arabidopsis thaliana (ecotype Columbia). As to the method: Arabidopsis thaliana seeds (ecotype Columbia) were sterilized with 70% ethanol and 0.1% Triton X-100 and then washed with 70% ethanol containing 0.01% Triton X-100. Then the seeds were transferred to vertical square petri dishes (11 seeds per dish) on a solid medium consisting of MS (2.15 g/l), MES (0.5 g/l), sucrose (1 g/l), agar (11 g/l), buffered to pH 5.8, and various concentrations of tested compounds. The compounds were dissolved in DMSO, thus 0.05% DMSO was used as a control solution. After incubation for 3 days in darkness at 4°C, the seeds were germinated and grown in an environmental chamber (fluorescence light intensity 150 µE m^-2 s^-1, humidity 55%, 16 h day/8 h night, 22°C). […] The number of lateral roots was scored under a stereomicroscope. […] In addition, compounds with tetrahydropyranyl protection at N9 slightly increase the number of emerged lateral roots (Fig 3C). […] Table 6: […]

The test system of the next series is Zea mays seedlings. The series can be described thus: Effect on development of Zea mays seedlings (hydroponic). It is filed as in vivo, Zea mays cv. CELLUX. As to the method:
Maize seeds (Zea mays cv. CELLUX) were imbibed in tap water and germinated on a wetted filter paper. After 3 days, the germinated seedlings were transferred to aerated hydroponic tanks filled with Hoagland's nutrient solution. The plants were grown in an environmental chamber with 16 h light period (250 μE m^-2 s^-1) at 27°C and 8 h dark period at 20°C. Tested compounds diluted in DMSO were added to nutrient solution immediately when seedlings were nested in the tanks or after two additional days of cultivation. Control plants were grown in parallel with addition of corresponding amount of DMSO (up to 0.01%). Root and leaf tissues of ten plants were harvested at different time points after the application of the compounds, immediately frozen in liquid nitrogen and used for cytokinin content and transcript level analysis. Length of primary root and the first leaf were determined with ruler on sets of twelve plants, each cultivated in the independent tank (for every cytokinin application repeated ten times). Dry mass of root system and the aerial part was determined after cutting off the kernel and desiccation in dryer for two days at 60°C. […] Fig. 4) and up to 1 micromolar concentration when more seedlings were in the solution (approx. 50 seedlings per 1 liter; Fig. 5). […] Table 7: […]

Series [1] is described as follows: Calcein AM cytotoxicity assay, B10A.4 cells. The note with it: mouse; for CC50 at 72 h: b10a.4 macrophages. As to the method:
(§1) All compound concentrations were examined in duplicates. […] Zero cytotoxicity is a basic prerequisite for the use of these substances in cosmetical applications. To assess the antitumor activity, the toxicity of new derivatives on panels containing cell lines of different histogenic and species origin was tested (Table 5). […] The compounds listed in Table 5 can be divided into 2 groups.
(§2) The first group contains "classical cytokinins" represented by 6-substituted purines (their effects are already known). The second group includes novel 2-fluoro-N6-substituted-9-(2-oxacycloalkyl)-9H-purine-6-amine derivatives. […] Low cytotoxicity (high IC50 value) of the compounds is the basic prerequisite for cosmetic and medical applications. […] Table 5: Cytotoxicity of novel compounds for different normal cell lines tested / IC50 (µmol/L)

The nature of series [2]: Calcein AM cytotoxicity assay, BJ cells. The note with it: human; for CC50 at 72 h: bj fibroblasts. As to the method: as §1, §2
The nature of series [3]: Calcein AM cytotoxicity assay, NIH3T3 cells. The note with it: mouse; for CC50 at 72 h: nih3t3 cells. As to the method: as §1, §2
The next series relates to excised wheat leaf tips. The series can be described thus: Senescence inhibition on winter wheat leaf segments (chlorophyll retention). More on the design: species or system Triticum aestivum cv. Hereward. Particulars: for Emax: Triticum aestivum, foliar, read-out: Activity (%) [10^-4mol.l^-1 KTHP = 100%]; for Emax / Activity (%) [10^-4mol.l^-1 KTHP = 100%]: retention of chlorophyll in excised wheat leaf tips, 96 h in the dark, at concentration with highest activity; for Concentration with highest activity: retention of chlorophyll. As to the method: Seeds of winter wheat, Triticum aestivum cv. Hereward, were washed under running water for 24 hours and then sown on vermiculite soaked with the Knop's solution. They were placed in the grow chamber at 25 °C with a 16/8 h light period at 50 μmol.m^-2.s^-1. After 7 days, the first leaf was fully developed and the second leaf had started to grow. A tip section of the first leaf, approximately 35 mm long, was removed from 5 seedlings and trimmed slightly to a combined weight of 100 mg. The basal ends of the five leaf tips were placed in the wells of a microtiter polystyrene plate containing 150 μl of the solution of the tested compound each. The entire plate was inserted into a plastic box lined with paper tissues soaked with distilled water to prevent leaf sections from drying out. […] The absorbance of the extract was recorded at 665 nm. In addition, chlorophyll extracts from fresh leaves and leaf tips incubated in deionised water were measured. From the obtained data, the concetration with the highest activity was selected for each compound tested. Relative activity of the compound at this concentration was calculated (Table 7). […] The values shown are means of five replicates and the whole experiment was repeated twice. The compounds to be tested were dissolved in dimethylsulfoxide (DMSO) and the solution brought up to 10^-3 M with distilled water. […] The compounds listed in Table 7 can be divided into 2 groups. The first group contains "classical 6,9-disubstituted purines (KTHP as a control)" known in prior art. […] Table 9: […]

[4] abbreviates: at concentration with highest activity.
The mark [5] stands for this setting: Cytotoxicity IC50, B10A.4, first column headed B10A.4.
The mark [6] stands for this setting: Cytotoxicity IC50, B10A.4, second column headed B10A.4.

For the compound `Oc1cc(F)cc(CNc2nc(F)nc3c2ncn3C2CCCO2)c1` (stereo not drawn) [Compound 28], the “Concentration with highest activity” value in the series with Arabidopsis thaliana (number of lateral roots) is on record as 10^-5 mol.l^-1; in the series with Zea mays seedlings (root dry mass) it was 10^-7 mol.1^-1; in the series with Zea mays seedlings (shoot dry mass), 10^-6 mol.1^-1. For the same compound, in the series on Arabidopsis thaliana (number of lateral roots (% of control), at concentration with highest activity), the “Activity (%) [10^-8 mol.l^-1 Kin = 100%]” value was 49.3 (± 9) %. For the same compound, in the series on Zea mays seedlings (setting [4]), the “Root dry mass (%) [4 x 10^-8 mol.l^-1 Kin = 100%]” value is reported as 190.2 (± 20) %. Also, the “Shoot dry mass (%) [10^-6 mol.l^-1 Kin = 100%]” value in the series with Zea mays seedlings (setting [4]) was 111.8 (± 6) %.

On to `COc1cccc(CNc2ncnc3nc[nH]c23)c1` [6-(3-methoxybenzylamino)purine, reference compound], for which the “root elongation and branching (in words)” value in the series with Arabidopsis thaliana (already in micromolar concentration) was “significantly inhibits root elongation and branching”.

`COc1ccc(CNc2nc(F)nc3c2ncn3C2CCCCO2)cc1` (stereo not drawn) [Compound 68, 2-Fluoro-6-[(4-methoxybenzyl)amino]-9-(tetrahydro-2H-pyran-2-yl)-9H-purine]: the IC50 at 72 h in series [1] (setting [5]), in series [2] and in series [3] was more than 167 µM each time. Besides, the “Shoot dry mass (%) [10^-6 mol.l^-1 Kin = 100%]” value in the series on Zea mays seedlings (setting [4]) is given as 118.6 (± 9) %. The “Concentration with highest activity” value with Zea mays seedlings (shoot dry mass) is recorded as 10^-6 mol.1^-1. Also, the Emax with excised wheat leaf tips was found to be 155%.

In the case of `COc1ccc(CNc2nc(F)nc3c2ncn3C2CCCCO2)o1` (stereo not drawn) [Compound 63], the half-maximal cytotoxic concentration (CC50) at 72 h in series [1] (setting [5]), in series [2] and in series [3] was more than 167 µM in each case. Also, the “Concentration with highest activity” value with excised wheat leaf tips is on record as 10^-4 mol.l^-1. In the series on excised wheat leaf tips, the “Activity (%) [10^-4mol.l^-1 KTHP = 100%]” value is on record as 97 (± 5) %.

On to `CC(C)=CCNc1nc(F)nc2c1ncn2C1CCCO1` (stereo not drawn) [Compound 13], for which the 50% cytotoxic concentration (CC50) at 72 h in series [1] (setting [5]), in series [1] (setting [6]), in series [2] and in series [3] was more than 167 µM throughout. Besides, the “root elongation and lateral root proliferation (in words)” value in the series on Zea mays seedlings (up to 1 µM concentration) was “does not inhibit root elongation and lateral root proliferation”. In addition, the “Concentration with highest activity” value in the series on excised wheat leaf tips is listed as 10^-4 mol.l^-1. Besides, in the series with excised wheat leaf tips, the “Activity (%) [10^-4mol.l^-1 KTHP = 100%]” value is listed as 109.8 (± 13) %.

Turning to `COc1cccc(CNc2nc(F)nc3c2ncn3C2CCCO2)c1O` (stereo not drawn) [Compound 20], the CC50 (usually the concentration at which the toxic effect on the cells reaches its halfway point) at 72 h in series [1] (setting [5]) was 124 µM; in series [1] (setting [6]) it was 126 µM; in series [2], 137 µM; in series [3], more than 141 µM. In addition, the “Concentration with highest activity” value in the series on excised wheat leaf tips was 10^-4 mol.l^-1. In the series on excised wheat leaf tips, the “Activity (%) [10^-4mol.l^-1 KTHP = 100%]” value is given as 50 (± 5) %.

Consider `Oc1cc(O)cc(CNc2nc(F)nc3c2ncn3C2CCCO2)c1` (stereo not drawn) [Compound 34], for which the CC50 at 72 h in series [1] (setting [5]), in series [2] and in series [3] was more than 167 µM throughout. The “Concentration with highest activity” value with excised wheat leaf tips was 10^-4 mol.l^-1. The “Activity (%) [10^-4mol.l^-1 KTHP = 100%]” value in the series on excised wheat leaf tips is given as 145 (± 12) %.

`COc1cc(CNc2nc(F)nc3c2ncn3C2CCCO2)ccc1O` (stereo not drawn) [Compound 43, 2-Fluoro-6-[(4-hydroxy-3-methoxybenzyl)amino]-9-(tetrahydrofuran-2-yl)-9H-purine]: the IC50 at 72 h in series [1] (setting [5]), in series [2] and in series [3] was more than 167 µM in each case. Further, the Emax in the series on excised wheat leaf tips was 55%.

Consider `Oc1ccccc1CNc1nc(F)nc2c1ncn2C1CCCO1` (stereo not drawn) [Compound 14], for which the CC50 at 72 h in series [1] (setting [5]), in series [1] (setting [6]), in series [2] and in series [3] was more than 167 µM each time. Moreover, in the series on excised wheat leaf tips, the “Concentration with highest activity” value is given as 10^-4 mol.l^-1. In the series with excised wheat leaf tips, the “Activity (%) [10^-4mol.l^-1 KTHP = 100%]” value is on record as 53.6 (± 7) %.

As for `Oc1ccc(CNc2nc(F)nc3c2ncn3C2CCCO2)o1` (stereo not drawn) [Compound 55], the CC50 at 72 h in series [1] (setting [5]), in series [2] and in series [3] was more than 167 µM each time. Moreover, the “Concentration with highest activity” value with excised wheat leaf tips was 10^-4 mol.l^-1. For the same compound, the “Activity (%) [10^-4mol.l^-1 KTHP = 100%]” value in the series on excised wheat leaf tips is 101 (± 17) %.
